From patent US8710179B2, “Compositions and methods for concentrating and depleting microorganisms” (priority 2006, dated 2014)
Values after ≈ are worked out from the molar mass of the structure shown. Where two headings read alike, the source gives them in different places.

Columns and labels:
GFP-expressing E. coli = assay: Viability of polymer-captured bacteria, propidium iodide staining
Procedure: To establish the viability of polymer-captured bacteria, samples of polymer-captured GFP-expressing bacteria were incubated for 15 minutes at room temperature in a solution of 1 ml propidium iodide (Invitrogen, USA) in PBS (final concentration 0.06 mM), and thereafter centrifuged/washed in PBS and examined under a confocal fluorescent microscope using emission suitable for GFP and propidium iodide (excitation at 490 nm emission at 620 nm).

E. coli [1] = assay: Bacteria capture assay with polymer-loaded resin beads (incl. kinetic studies); format: binding, Escherichia coli ATCC 35218; conditions: for Bound E. coli (CFU/mg resin): polymer-loaded resin beads, 30 minutes incubation
Procedure: Various concentrations of bacteria in 500 μl luria bertani broth (LB) were shaken at room temperature in the presence of deprotected polymer-loaded beads (1.8 mg of polymer per sample) or protected polymer-loaded and unloaded beads as a control experiment in a centrifuge tube equipped with a 10 μm cutoff membrane (Whatman polypropylene mesh VectaSpin Micro). After 30 minutes incubation the samples were centrifuged at 21,000×g for 5 minutes to separate beads from unbound bacteria and further analyzed as follows.
(§1) To assess bacterial binding to the beads, filtrates were subjected to serial 10 fold dilutions and plated on LB agar plates. Cell counts were determined using the drop plate method (three 20 μl drops onto LB agar plates) after overnight incubation at 37° C. For the viability study, resins were spread directly on LB agar plates and incubated similarly. For kinetic studies, resins were incubated with 1×10^6 CFU/ml E. coli in LB for up to 15 minutes and filtered after the indicated time periods then plated for CFU count.
“Bound E. coli (CFU/mg resin)” represents the capturing capacity of bacterial binding per one milligram of polymer-loaded resin beads as assessed after 30 minutes incubation using the capture assay as presented herein (column 9 in Table 3).

[2] = Hydrophobicity estimation by RP-HPLC (percent acetonitrile at elution); format: physicochemical; conditions: RP-HPLC C18, linear acetonitrile gradient 1% per minute
Text: In order to estimate the hydrophobicity of each polymer, the polymer was eluted with a linear gradient of acetonitrile (1% per minute) on an HPLC reversed-phase C18 column, and the percent of acetonitrile at which the polymer was eluted was used for hydrophobicity estimation (see, “ACN (%)” in Table 3 below).
“ACN (%)” represents the percent of acetonitrile in the RP-HPLC gradient mobile phase at which the polymer was eluted and which corresponds to the estimated hydrophobicity of the polymer (column 4 in Table 3);

E. coli [3] = assay: Bacterial binding assay by real-time SPR on polymer-coated chip; conditions: 10^6 CFU/ml E. coli
Procedure: Purified resin-free polymers were immobilized onto the CM5 sensor chip (BIAcore, Uppsala, Sweden) via the terminal carboxyl group using 2-(2-pyridinyldithio)ethaneamine (PDEA). Carboxyl activation was achieved as follows. Morpholino-ethanesulfonic acid (MES buffer, 0.1 ml of 0.1 M) at pH 5.0 was used to solubilize 0.1 mg of the polymer. The solution was mixed with PDEA to final concentration of 22 mM and ethyl-3-(3-dimethylaminopropyl)-carbodiimide (EDC) to final concentration of 13 mM, incubated for 1 hour on ice and then placed in a dialysis tube (floating in buffer) to remove the excess reagents. In parallel, a 1:1 solution (20 μl) of EDC (0.4 M 1-ethyl-3-(3-dimethylaminopropyl)-carbodiimide in water):NHS (0.1 M N-hydroxysuccinimide in water) was injected at a flow rate of 10 μl/minute, to activate the chip surface. […]
Bacterial binding to the polymer was determined by surface plasmon resonance (SPR) using the optical biosensor system BIAcore 2000 (BIAcore, Uppsala, Sweden). […]
For real-time monitoring of bacterial capture the present inventors have developed a model system based on the SPR technology that normally enables binding measurements between immobilized receptor molecules and soluble ligands. […] In the example presented herein, the polymer was immobilized onto the sensor chip and bacteria were injected over the polymer-bound surface and their binding monitored in real-time. […]

[4] = Regeneration and stability of polymer-loaded beads (HPLC and MS after cleavage); format: physicochemical
Text: To verify their stability and the regeneration thereof, polymer-loaded resin beads were submitted to multiple cycles of bacterial binding followed by their release with 70% ethanol. To assess the potential polymer degradation, the polymer was cleaved from the resin, analyzed by HPLC and identified by mass spectrometry.
Polymer-loaded beads were exposed to 10 consecutive cycles of bacterial binding and release with 70% ethanol, and were submitted to a cleavage reaction. The cleaved polymers were analyzed by HPLC and mass spectrometry before and after the repetitive cycles. The HPLC chromatograms were obtained over […] elution using a 1% gradient of acetonitrile in water (30% to 60%), and the fraction containing the polymer was subjected to mass spectrometry analysis.

S. aureus = format: cell-based
Text: (§2) “MIC (μM)” represents the minimal inhibitory concentration of each tested polymer in μM for each bacterial strain, measured as described previously (columns 5-8 in Table 3); For bacterial strains, “Ec” represents E. coli; “Pa” represents P. aeruginosa; “Sa” represents S. aureus; and “Bc” represents B. cereus; and […]

P. aeruginosa = format: cell-based
Text: as §2

B. cereus = format: cell-based
Text: as §2

E. coli [5] = format: cell-based
Text: as §2

E. coli [6] = format: cell-based; remark: listed apart in the source
Procedure: as §1
The non-cytotoxicity of the beads-bound polymers was assessed by the viability of the polymer-captured bacteria. E. coli was incubated with beads-bound polymers (10^6 CFU/ml/mg resin), and after filtration, samples of the resins and the filtrates were plated on LB-agar individually.
FIG. 6 presents a series of images of LB-agar plates, showing the viability of the captured E. coli cells (1×10^6 CFU/ml) which were incubated for 30 minutes with deprotected (FIGS. 6A1 and 6A2) and Boc-protected (FIGS. 6B1 and 6B2) K(NC12K)7NH2-loaded resin beads, wherein FIGS. 6A1 and 6B1 show the plates of the plated filtrates and FIGS. 6A2 and 6B2 show the plates of filtered and plated beads.

bacteria = assay: Antibacterial activity (MIC) of the resin-free polymer, strain not given; format: cell-based
Text: as §2

Compound | Bound E. coli (CFU/mg resin) (E. coli [1]) | ACN (%) at which the polymer was eluted (estimated hydrophobicity) [2] [%] | MIC (μM) Sa (S. aureus; resin-free polymer) [µM] | MIC (μM) Pa (P. aeruginosa; resin-free polymer) [µM] | MIC (μM) Bc (B. cereus; resin-free polymer) [µM] | MIC (μM) Ec (E. coli [5]; resin-free polymer) [µM] | MIC (μM) Sa (S. aureus) [µM] | MIC (μM) Pa (P. aeruginosa) [µM] | MIC (μM) Bc (B. cereus) [µM] | MIC (μM) Ec (E. coli [5]) [µM] | further results
dermaseptin [reference compound] | – | – | – | – | – | – | – | – | – | – | fraction of dead bacteria upon exposure (GFP-expressing E. coli; polymer-bound bacteria exposed 15 minutes at 12.5 μM): significantly increased
H-KKKKKKKKKKKKKKK-NH2 [Polymer K15NH2, reference compound] | 1 ± 0.6 × 10^3 CFU/mg resin | 22 | >50 | >50 | >50 | >50 | – | – | – | – | fold less efficient than the K(NC12K)7NH2-coated chip (E. coli [3]): more than 100 fold; stability of the polymer after repeated use ([4]; 10 cycles of bacterial binding and release with 70% ethanol): deteriorated over time
NCCCC[C@H](NC(=O)CCCCCCCNC(=O)[C@H](CCCCN)NC(=O)CCCCCCCNC(=O)[C@H](CCCCN)NC(=O)CCCCCCCNC(=O)[C@H](CCCCN)NC(=O)CCCCCCCNC(=O)[C@H](CCCCN)NC(=O)CCCCCCCNC(=O)[C@H](CCCCN)NC(=O)CCCCCCCNC(=O)[C@H](CCCCN)NC(=O)CCCCCCCNC(=O)[C@@H](N)CCCCN)C(N)=O [K(NC8K)7NH2] | 2 ± 0.6 × 10^2 CFU/mg resin | 34 | – | – | – | – | >50 | >50 | >50 | >50 | –
NCCCC[C@H](NC(=O)CCCCCCCCCCCNC(=O)[C@H](CCCCN)NC(=O)CCCCCCCCCCCNC(=O)[C@H](CCCCN)NC(=O)CCCCCCCCCCCNC(=O)[C@H](CCCCN)NC(=O)CCCCCCCCCCCNC(=O)[C@H](CCCCN)NC(=O)CCCCCCCCCCCNC(=O)[C@H](CCCCN)NC(=O)CCCCCCCCCCCNC(=O)[C@H](CCCCN)NC(=O)CCCCCCCCCCCNC(=O)[C@@H](N)CCCCN)C(N)=O [K(NC12K)7NH2] | – | – | – | – | – | – | >50 | >50 | >50 | >50 | viable bacteria on the filtered and plated beads (E. coli [6]): remained alive; fraction of dead bacteria (GFP-expressing E. coli; polymer-captured bacteria, did not exceed control suspension): up to 12%; viability of polymer-captured bacteria (GFP-expressing E. coli; propidium iodide exclusion): most polymer-captured bacteria were alive; stability of the polymer after repeated use [4]: remained unchanged; MIC (bacteria): more than 50 μM
H-KKKKKKKK-NH2 [Polymer K8NH2, reference compound] | 9 ± 1 × 10^2 CFU/mg resin | 20 | >50 | >50 | >50 | >50 | – | – | – | – | –
CCCCCCCCCCCC(=O)NC(CCCCN)C(=O)NCCCCCCCC(=O)NC(CCCCN)C(=O)NCCCCCCCC(=O)NC(CCCCN)C(=O)NCCCCCCCC(=O)NC(CCCCN)C(=O)NCCCCCCCC(=O)NC(CCCCN)C(=O)NCCCCCCCC(=O)NC(CCCCN)C(=O)NCCCCCCCC(=O)NC(CCCCN)C(=O)NCCCCCCCC(=O)NC(CCCCN)C(N)=O (stereo not shown) [C12K(NC8K)7NH2] | 1 ± 0.5 × 10^3 CFU/mg resin | 47.5 | 50 (≈ 111 µg/mL) | 6.2 (≈ 13.7 µg/mL) | 12.5 (≈ 27.7 µg/mL) | 3.1 (≈ 6.86 µg/mL) | – | – | – | – | amount of captured bacteria (E. coli [1]; polymer-loaded resin beads exposed to E. coli): approximately 10^3 CFUs
